The structures appear in SMILES notation.

In the test the target is T1, human GPR119 (Homo sapiens, UniProt Q8TDV5).
T1 construct: expressed in transfected cells
T1 sequence (Q8TDV5 1-335): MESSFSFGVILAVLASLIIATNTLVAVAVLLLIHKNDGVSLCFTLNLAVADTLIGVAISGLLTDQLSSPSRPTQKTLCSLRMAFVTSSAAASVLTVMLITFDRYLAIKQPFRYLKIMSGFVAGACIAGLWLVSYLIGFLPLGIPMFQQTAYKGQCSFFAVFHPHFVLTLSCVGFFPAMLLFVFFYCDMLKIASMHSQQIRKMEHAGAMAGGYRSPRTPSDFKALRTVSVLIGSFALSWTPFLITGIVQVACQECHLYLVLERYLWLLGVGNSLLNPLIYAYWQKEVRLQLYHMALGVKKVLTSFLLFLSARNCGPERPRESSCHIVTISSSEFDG
The test can be described thus: Cyclic AMP Assay in Stable Cell Line (HTRF). It counts as cell-based. Conditions: Flp-In-CHO-hGPR119 cells, intracellular cAMP, 30 minutes at 37° C., 1 mM IBMX. The protocol: Flp-In-CHO cells (Invitrogen, Cat. #R758-07) are maintained in Ham's F12 medium supplemented with 10% fetal bovine serum, 1% antibiotic mixture and 2 mM L-glutamine. The cells are transfected with a DNA mixture containing human GPR119 in pcDNA5/FRT vector and the pOG44 vector (1:9) using Fugene6 (Roche), according to the manufacturer's instruction. After 48 hours, the medium is changed to medium supplemented with 400 μg/ml hygromycin B to initiate the selection of stably transfected cells.
To test the activity of compounds of the invention, Flp-In-CHO-hGPR119 cells are harvested and resuspended in DMEM plus 3% lipid-depleted fetal bovine serum. Forth μl of cells are plated in 384 well plates at a density of 15,000 cells/well. IBMX (3-isobutyl-1-methyl-xanthine) is added to the cells to a final concentration of 1 mM, followed by the addition of 500 nl of the compound to be tested. The cells are incubated at 37° C. for 30 minutes. Equal volume (20 μl) of the HTRF reagents, anti-cAMP-Cryptate and cAMP-XL665, are added to the cells. The plates are incubated at room temperature for 1 hour and read on a HTRF reader according to the manufacturer's instruction.
`CC(C)c1ccc(CN2CC(Oc3cnc(N4CCN(S(C)(=O)=O)CC4=O)cn3)C2)cc1` [Example A19] showed an EC50 of 0.012 µM.

For the compound `CS(=O)(=O)N1CCN(c2ncc(OC3CN(Cc4ccc(C(F)(F)F)cc4)C3)cn2)CC1` [Example A42], the EC50 worked out at 0.149 µM. In turn, `CC(C)c1nc(CN2CC(Oc3c(F)cc(C4CCN(S(C)(=O)=O)CC4)cc3F)C2)no1` [Example B11] came in with an EC50 of 0.397 µM. To `CS(=O)(=O)N1CCC(c2cc(F)c(OC3CCN(Cc4nc(C(F)(F)F)cs4)CC3)c(F)c2)CC1` [Example B16] belongs 0.009 µM; to `CS(=O)(=O)N1CC=C(c2cc(F)c(OC3CN(Cc4ccc(C(F)(F)F)cc4)C3)c(F)c2)CC1` [Example A34], 0.012 µM; to `CC(C)(C)OC(=O)N1CCC(S(=O)(=O)N2CCC(c3cc(F)c(OC4CN(Cc5ccc(C(F)(F)F)cc5)C4)c(F)c3)CC2)C1` (stereo not shown) [Example A39], 0.214 µM.

Take `CC(C)c1ccc(CN2CC(Oc3ccc(N4CCN(S(C)(=O)=O)CC4)cc3)C2)cc1` [Example A22]: the midpoint of the response, the EC50, lay at 0.116 µM. The same measure for `CS(=O)(=O)N1CCC(c2cc(F)c(OC3CN(Cc4ccc(C5(F)COC5)cc4)C3)c(F)c2)CC1` [Example A28]: 0.049 µM; for `CS(=O)(=O)N1CCN(c2ccc(OC3CN(Cc4cccc(C(F)(F)F)c4)C3)cn2)CC1` [Example A16]: 0.884 µM; for `O=S(=O)(CCCO)N1CCC(c2cc(F)c(OC3CN(Cc4ccc(C(F)(F)F)cc4)C3)c(F)c2)CC1` [Example A41]: 0.036 µM.

For the compound `CS(=O)(=O)N1CCN(c2cnc(OC3CN(Cc4ccc(C(F)(F)F)cc4)C3)cn2)C(=O)C1` [Example A3], the midpoint of the response, the EC50, lay at 0.02 µM. The same measure for `CS(=O)(=O)N1CCC(c2ccc(OC3CCN(Cc4nc(C(F)(F)F)no4)CC3)cc2F)CC1` [Example B7]: 0.016 µM. To `CS(=O)(=O)N1CCN(c2ccc(OC3CN(Cc4ccc(C(F)(F)F)cc4)C3)c(F)c2)CC1` [Example A43] belongs 0.115 µM. The same measure for `CS(=O)(=O)N1CCN(c2ccc(OC3CN(Cc4ccc(Cl)cc4)C3)cn2)CC1` [Example A15]: 0.134 µM; for `CS(=O)(=O)N1CCC(c2cc(F)c(OC3CN(Cc4ccc(C(F)(F)F)cc4)C3)c(F)c2)CC1` [Example A7, 4-(3,5-difluoro-4-(1-(4-(trifluoromethyl)benzyl)azetidin-3-yloxy)phenyl)-1-(methylsulfonyl)piperidineine]: 0.013 µM. `CS(=O)(=O)N1CCC(c2cc(F)c(OC3CN(Cc4noc(C(F)(F)F)n4)C3)c(F)c2)CC1` [Example B23]: the EC50 was determined as 0.21 µM. For `CC(C)(F)c1noc(CN2CCC(Oc3c(F)cc(C4CCN(S(C)(=O)=O)CC4)cc3F)CC2)n1` [Example B2, 5-((4-(2,6-difluoro-4-(1-(methylsulfonyl)piperidin-4-yl)phenoxy)piperidin-1-yl)methyl)-3-(2-fluoropropan-2-yl)-1,2,4-oxadiazole], the EC50 was found to be 0.028 µM.

In turn, `CS(=O)(=O)N1CCC(c2cc(F)c(OC3CN(Cc4ccc5ccccc5c4)C3)c(F)c2)CC1` [Example A30] displayed an EC50 of 0.135 µM. The same measure for `CC(C)c1ccc(CN2CC(Oc3ccc(N4CCN(S(C)(=O)=O)CC4)nc3)C2)cc1` [Example A1, 1-(5-(1-(4-isopropylbenzyl)azetidin-3-yloxy)pyridin-2-yl)-4-(methylsulfonyl)piperazine]: 0.118 µM; for `CS(=O)(=O)N1CCC(c2cc(F)c(OC3CCCN(Cc4ccc(C(F)(F)F)cc4)CC3)c(F)c2)CC1` (stereo not shown) [Example C2]: 0.125 µM; for `CS(=O)(=O)N1CCC(c2ccc(OC3CCN(Cc4nc(C(F)(F)F)no4)CC3)cc2)CC1` [Example B26]: 0.037 µM.

For the compound `O=S(=O)(C1CCNC1)N1CCC(c2cc(F)c(OC3CN(Cc4ccc(C(F)(F)F)cc4)C3)c(F)c2)CC1` (stereo not shown) [Example A40], the response was half-maximal at 0.576 µM (EC50).

On to `CS(=O)(=O)N1CCN(c2cnc(OC3CN(Cc4ccc(C(F)(F)F)cc4)C3)cn2)CC1` [Example A6, 2-(4-(methylsulfonyl)piperazin-1-yl)-5-(1-(4-(trifluoromethyl)benzyl)azetidin-3-yloxy)pyrazine], for which a half-maximal response (EC50) required 0.069 µM.

For `CS(=O)(=O)N1CCN(c2ccc(OC3CN(Cc4ccc(C(F)(F)F)cc4)C3)cn2)CC1` [Example A9], the EC50 came out at 0.038 µM.

Compound `CS(=O)(=O)N1CCC(c2cc(F)c(OC3CN(Cc4ncc(C(F)(F)F)cc4Cl)C3)c(F)c2)CC1` [Example A26] returned an EC50 of 0.33 µM. Regarding `CS(=O)(=O)N1CCC(F)(c2cc(F)c(OC3CCN(Cc4nc(C(F)(F)F)no4)CC3)c(F)c2)CC1` [Example D1, 5-((4-(2,6-difluoro-4-(4-fluoro-1-(methylsulfonyl)piperidin-4-yl)phenoxy)piperidin-1-yl)methyl)-3-(trifluoromethyl)-1,2,4-oxadiazole], a half-maximal response (EC50) required 0.199 µM. `CS(=O)(=O)N1CCC(c2cc(F)c(OC3CCN(Cc4cccc(C(F)(F)F)c4)CC3)c(F)c2)CC1` [Example A45] came in with an EC50 of 0.048 µM. The same measure for `CS(=O)(=O)N1CCC(c2cc(F)c(OC3CCN(Cc4nc(C(F)(F)F)no4)CC3)c(F)c2)CC1` [Example B1, 5-((4-(2,6-Difluoro-4-(1-(methylsulfonyl)piperidin-4-yl)phenoxy)piperidin-1-yl)methyl)-3-(trifluoromethyl)-1,2,4-oxadiazole]: 0.007 µM; for `CS(=O)(=O)N1CCC(c2cc(F)c(OC3CCN(Cc4ccc(C(F)(F)F)cc4)C3)c(F)c2)CC1` (stereo not shown) [Example C1, 4-(3,5-Difluoro-4-(1-(4-(trifluoromethyl)benzyl)pyrrolidin-3-yloxy)phenyl)-1-(methylsulfonyl)piperidine]: 0.144 µM; for `CS(=O)(=O)N1CCN(c2cnc(OC3CCN(Cc4nc(C(F)(F)F)no4)CC3)cn2)CC1` [Example B4, 5-((4-(5-(4-(Methylsulfonyl)piperazin-1-yl)pyrazin-2-yloxy)piperidin-1-yl)methyl)-3-(trifluoromethyl)-1,2,4-oxadiazole]: 0.757 µM. The same measure for `CS(=O)(=O)N1CCC(c2ccc(OC3CCN(Cc4nc(C(F)(F)F)no4)CC3)c(F)c2F)CC1` [Example B27]: 0.011 µM.

Source of the values: patent US8575168B2, “Compounds and compositions as modulators of GPR119 activity” (IRM LLC, priority 2009, dated 2013).
